Measured values reported in patent US7811352B2, “Fertilizer compositions and methods of using” (priority 2005, dated 2010).
Marks after values point to notes of the source that are not given here.

What was measured:
Type in all cases: in vivo
[1] = system: creeping bentgrass for greens; assay: Turfgrass quality and color ratings, creeping bentgrass for greens (Example 12); conditions: scale 1-10
Source text: (§1) In this Example, the effect of a fertilizer comprising lysine on turfgrass growth was examined. The effects of lysine (HCl) and LIQUID LYSINE on a common type of golf course greens quality turfgrass (creeping bentgrass for greens) were compared with those of CoRoN® brand fertilizer (commercially available from Helena Chemical Co., Collierville, Tenn.).
(§2) Nine fertilizer treatments comprising three concentrations of each fertilizer composition (Corono® (N—P—K, 14-2-14), LIQUID LYSINE (N—P—K, 10-2-1), and lysine (HCl) (N—P—K, 15-2-1)) were prepared and applied to 3 replications of creeping bentgrass for use on golf course greens. The lysine (HCl) (250 g) was dissolved in water (500 mL) prior to application. Each fertilizer treatment was applied in concentrations of 0.7 g N/m^2, 1.4 g N/m^2, and 2.8 g N/m^2. All applications were made using an Ortho Heavy Duty hand pump sprayer with all products being mixed with 126 mL of water for application. Plot size was 2 ft×6 ft set up as a randomized complete block. Irrigation was applied following application. Plots were rated for turfgrass quality and color (scale of 1-10 where 10=dark green turf, 1=dead/brown turf, and 6minimally acceptable turf) and phytotoxicity (% bum) throughout the study period. Quality, color, and phytotoxicity were measured on day 7, day 14, day 2I1, day 28, day 35, and day 42 after application. All data was subject to statistical analysis and significant means were determined.

[2] = system: creeping bentgrass for greens; assay: Phytotoxicity (% burn), creeping bentgrass for greens (Example 12)
Source text: as §1, §2

Bermuda grass = assay: Phytotoxicity (% burn), Bermuda grass golf course fairways (Example 13)
Experimental: In this Example, the effect of a fertilizer comprising lysine on turfgrass growth was examined. The effects of lysine (HCl) and LIQUID LYSINE on a common type of golf course fairway quality turfgrass (Bermuda green) were compared with those of CoRoN® brand fertilizer.
Six fertilizer treatments comprising two concentrations of each fertilizer composition (Coron® (N—P—K, 14-2-14), LIQUID LYSINE (N—P—K, 10-2-1), and lysine (HCl) (N—P—K, 15-2-1)) were prepared and applied to 3 replications of Bermuda grass for use on golf course fairways. The lysine (HCl) was applied as a granular using a Scotts 2 foot drop spreader on a setting of 4.5. The solutions of LIQUID LYSINE and Coran were applied using a Birchmeier backpack sprayer with a 5 foot spray pattern. Each fertilizer treatment was applied in concentrations 3.0 lb N/1000 ft^2 and 6.0 lb N/1000 ft^2. Plot size was 5 ft×60 ft set up as a randomized complete block. Irrigation was applied following application, Plots were rated for turfgrass quality and color (scale of 1-10 where 10=dark green turf 1=dead/brown turf and 6=minimally acceptable turf) and phytotoxicity (% burn) throughout the study period and compared with two untreated plots. […] All data was subject to statistical analysis and significant means were determined.

[3] = system: green height, creeping bentgrass; assay: Injury rating of green height creeping bentgrass after fertilization (Example 4); conditions: about two weeks after application
Experimental: In this Example, the efficacy of fertilizers on green height, creeping bentgrass was examined. Fertilizer compositions according to several embodiments of the present disclosure were prepared and compared to the commercial fertilizer products, urea 46-0-0 (granular) fertilizer, Lebanon fertilizer 21-0-12 (granular, commercially available from Lebanon Seaboard Corporation, Lebanon, Pa.) and Milorganite 6-2-0 (granular, commercially available from Milorganite, Milwaukee, Wis.). The fertilizer compositions were applied to the turf grass prior to winter dormancy of the turf at a rate equivalent to supplying about 1.0 pounds of nitrogen (N) per 1000 square feet. Each of the fertilizer compositions were applied at substantially equal rates of pounds (lbs) of nitrogen (N) per 1000 square feet. Table 1 illustrates the response of green height (i.e., the height of grass on golf course green), creeping bentgrass to fertilization using various exemplary fertilizers of the present invention, taken about two weeks after application of the fertilizer. The letters in the Color and Injury columns correspond to Duncan's Multiple Range Test. Numbers (means) in a column followed by the same letter are not statistically different at P=0.05.

Cl.NCCCC[C@H](N)C(=O)O [Lys (HCl) 15% N, L-lysine monohydrochloride]
Color Ratings - Creeping Bentgrass ([1]; Rate 0.7 gN/m^2, Day 7): 6.0abc | Quality Ratings - Creeping Bentgrass ([1]; Rate 0.7 gN/m^2, Day 7): 5.3a | Color Ratings - Creeping Bentgrass ([1]; Rate 0.7 gN/m^2, Day 14): 6.0cd | Quality Ratings - Creeping Bentgrass ([1]; Rate 0.7 gN/m^2, Day 14): 6.3cd | Color Ratings - Creeping Bentgrass ([1]; Rate 0.7 gN/m^2, Day 21): 6.3a | Quality Ratings - Creeping Bentgrass ([1]; Rate 0.7 gN/m^2, Day 21): 6.7a | Color Ratings - Creeping Bentgrass ([1]; Rate 0.7 gN/m^2, Day 28): 6.3ab | Quality Ratings - Creeping Bentgrass ([1]; Rate 0.7 gN/m^2, Day 28): 6.3a | Color Ratings - Creeping Bentgrass ([1]; Rate 0.7 gN/m^2, Day 35): 6.3a | Quality Ratings - Creeping Bentgrass ([1]; Rate 0.7 gN/m^2, Day 35): 6.3ab | Color Ratings - Creeping Bentgrass ([1]; Rate 0.7 gN/m^2, Day 42): 7.3a | Quality Ratings - Creeping Bentgrass ([1]; Rate 0.7 gN/m^2, Day 42): 7.0a | Color Ratings - Creeping Bentgrass ([1]; Rate 1.4 gN/m^2, Day 7): 5.0c | Quality Ratings - Creeping Bentgrass ([1]; Rate 1.4 gN/m^2, Day 7): 5.7a | Color Ratings - Creeping Bentgrass ([1]; Rate 1.4 gN/m^2, Day 14): 5.0e | Quality Ratings - Creeping Bentgrass ([1]; Rate 1.4 gN/m^2, Day 14): 5.7de | Color Ratings - Creeping Bentgrass ([1]; Rate 1.4 gN/m^2, Day 21): 6.0a | Quality Ratings - Creeping Bentgrass ([1]; Rate 1.4 gN/m^2, Day 21): 7.0a | Color Ratings - Creeping Bentgrass ([1]; Rate 1.4 gN/m^2, Day 28): 6.7ab | Quality Ratings - Creeping Bentgrass ([1]; Rate 1.4 gN/m^2, Day 28): 7.0a | Color Ratings - Creeping Bentgrass ([1]; Rate 1.4 gN/m^2, Day 35): 5.7ab | Quality Ratings - Creeping Bentgrass ([1]; Rate 1.4 gN/m^2, Day 35): 5.3cd | Color Ratings - Creeping Bentgrass ([1]; Rate 1.4 gN/m^2, Day 42): 7.0a | Quality Ratings - Creeping Bentgrass ([1]; Rate 1.4 gN/m^2, Day 42): 6.7a | Color Ratings - Creeping Bentgrass ([1]; Rate 2.8 gN/m^2, Day 7): 5.3bc | Quality Ratings - Creeping Bentgrass ([1]; Rate 2.8 gN/m^2, Day 7): 5.7a | Color Ratings - Creeping Bentgrass ([1]; Rate 2.8 gN/m^2, Day 14): 5.0e | Quality Ratings - Creeping Bentgrass ([1]; Rate 2.8 gN/m^2, Day 14): 5.3e | Color Ratings - Creeping Bentgrass ([1]; Rate 2.8 gN/m^2, Day 21): 6.0a | Quality Ratings - Creeping Bentgrass ([1]; Rate 2.8 gN/m^2, Day 21): 7.0a | Color Ratings - Creeping Bentgrass ([1]; Rate 2.8 gN/m^2, Day 28): 6.3ab | Quality Ratings - Creeping Bentgrass ([1]; Rate 2.8 gN/m^2, Day 28): 7.0a | Color Ratings - Creeping Bentgrass ([1]; Rate 2.8 gN/m^2, Day 35): 5.0b | Quality Ratings - Creeping Bentgrass ([1]; Rate 2.8 gN/m^2, Day 35): 4.3 days | Color Ratings - Creeping Bentgrass ([1]; Rate 2.8 gN/m^2, Day 42): 6.3a | Quality Ratings - Creeping Bentgrass ([1]; Rate 2.8 gN/m^2, Day 42): 6.7a | Phytotoxicity (% Burn) - Creeping Bentgrass ([2]; Rate 0.7 gN/m^2, Day 7): 2.3b % | Phytotoxicity (% Burn) - Creeping Bentgrass ([2]; Rate 0.7 gN/m^2, Day 14): 15.0c % | Phytotoxicity (% Burn) - Creeping Bentgrass ([2]; Rate 0.7 gN/m^2, Day 21): 10.0d % | Phytotoxicity (% Burn) - Creeping Bentgrass ([2]; Rate 0.7 gN/m^2, Day 28): 6.7b % | Phytotoxicity (% Burn) - Creeping Bentgrass ([2]; Rate 0.7 gN/m^2, Day 35): 3.3d % | Phytotoxicity (% Burn) - Creeping Bentgrass ([2]; Rate 0.7 gN/m^2, Day 42): 1.7c % | Phytotoxicity (% Burn) - Creeping Bentgrass ([2]; Rate 1.4 gN/m^2, Day 7): 15.0c % | Phytotoxicity (% Burn) - Creeping Bentgrass ([2]; Rate 1.4 gN/m^2, Day 14): 58.3b % | Phytotoxicity (% Burn) - Creeping Bentgrass ([2]; Rate 1.4 gN/m^2, Day 21): 51.7b % | Phytotoxicity (% Burn) - Creeping Bentgrass ([2]; Rate 1.4 gN/m^2, Day 28): 18.3ab % | Phytotoxicity (% Burn) - Creeping Bentgrass ([2]; Rate 1.4 gN/m^2, Day 35): 56.7b % | Phytotoxicity (% Burn) - Creeping Bentgrass ([2]; Rate 1.4 gN/m^2, Day 42): 31.7b % | Phytotoxicity (% Burn) - Creeping Bentgrass ([2]; Rate 2.8 gN/m^2, Day 7): 36.7a % | Phytotoxicity (% Burn) - Creeping Bentgrass ([2]; Rate 2.8 gN/m^2, Day 14): 78.3a % | Phytotoxicity (% Burn) - Creeping Bentgrass ([2]; Rate 2.8 gN/m^2, Day 21): 73.3a % | Phytotoxicity (% Burn) - Creeping Bentgrass ([2]; Rate 2.8 gN/m^2, Day 28): 35.0a % | Phytotoxicity (% Burn) - Creeping Bentgrass ([2]; Rate 2.8 gN/m^2, Day 35): 83.3a % | Phytotoxicity (% Burn) - Creeping Bentgrass ([2]; Rate 2.8 gN/m^2, Day 42): 78.3a % | Phytotoxicity (% Burn) - Bermuda grass (Bermuda grass; 3.0 lb N/1000 ft^2, Day 7): 11.7bc % | Phytotoxicity (% Burn) - Bermuda grass (Bermuda grass; 3.0 lb N/1000 ft^2, Day 12): 6.7b % | Phytotoxicity (% Burn) - Bermuda grass (Bermuda grass; 3.0 lb N/1000 ft^2, Day 19): 1.7bc % | Phytotoxicity (% Burn) - Bermuda grass (Bermuda grass; 3.0 lb N/1000 ft^2, Day 26): 0.0b % | Phytotoxicity (% Burn) - Bermuda grass (Bermuda grass; 3.0 lb N/1000 ft^2, Day 33): 0.0a % | Phytotoxicity (% Burn) - Bermuda grass (Bermuda grass; 3.0 lb N/1000 ft^2, Day 40): 0.0c % | Phytotoxicity (% Burn) - Bermuda grass (Bermuda grass; 3.0 lb N/1000 ft^2, Day 47): 0.0c % | Phytotoxicity (% Burn) - Bermuda grass (Bermuda grass; 6.0 lb N/1000 ft^2, Day 7): 21.7a % | Phytotoxicity (% Burn) - Bermuda grass (Bermuda grass; 6.0 lb N/1000 ft^2, Day 12): 11.7a % | Phytotoxicity (% Burn) - Bermuda grass (Bermuda grass; 6.0 lb N/1000 ft^2, Day 19): 5.0b % | Phytotoxicity (% Burn) - Bermuda grass (Bermuda grass; 6.0 lb N/1000 ft^2, Day 26): 0.0b % | Phytotoxicity (% Burn) - Bermuda grass (Bermuda grass; 6.0 lb N/1000 ft^2, Day 33): 0.0a % | Phytotoxicity (% Burn) - Bermuda grass (Bermuda grass; 6.0 lb N/1000 ft^2, Day 40): 0.0c % | Phytotoxicity (% Burn) - Bermuda grass (Bermuda grass; 6.0 lb N/1000 ft^2, Day 47): 0.0c %

NC(N)=O [Urea, urea, reference compound]
Injury 1-9 (9 = no injury) ([3]; 1.09 Lbs. product/1000 square feet): 8.0^a,b,c | Injury 1-9 (9 = no injury) ([3]; 2.17 Lbs. product/1000 square feet): 8.7^a | Injury 1-9 (9 = no injury) ([3]; 6.51 Lbs. product/1000 square feet): 8.3^a,b
